What is called pIC50 is the IC50 on a negative log10 scale, so that one unit is a factor of ten. As a reminder, the half-life is how long it takes for the measured level to halve. Read a low half-life as fast loss.

pIC50: −log10 of the molar value.

Data set [1] deals with T1, Integrin alpha-IIb/beta-3 (Homo sapiens, UniProt P05106+P08514). Description: Inhibition of biotinylated fibrinogen binding to immobilized integrin GPIIb/IIIa. Format: protein-complex assay.
Data set [2] concerns Canis familiaris. Description: Ex vivo oral duration for maintaining at least 50% inhibition of platelet aggregation induced by adenosine diphosphate after administration at a dose of at 1 mg/kg. The class given is functional, Canis lupus familiaris.
A short description of data set [3]: Oral bioavailability in dog. Format: ADME, organism-based, Canis lupus familiaris. The conditions noted are these: in vivo.
Data set [4] in a line: Half life in dog. The conditions noted are these: in vivo. Format: ADME, organism-based, Canis lupus familiaris.
Data set [5] has as its target T1, Integrin alpha-IIb/beta-3. Briefly: Inhibition of thrombin-induced human gel-filtered platelet aggregation at 50 uM; NA= Inactive. The class given is functional.

T1 sequence (P05106 27-788 limits assumed): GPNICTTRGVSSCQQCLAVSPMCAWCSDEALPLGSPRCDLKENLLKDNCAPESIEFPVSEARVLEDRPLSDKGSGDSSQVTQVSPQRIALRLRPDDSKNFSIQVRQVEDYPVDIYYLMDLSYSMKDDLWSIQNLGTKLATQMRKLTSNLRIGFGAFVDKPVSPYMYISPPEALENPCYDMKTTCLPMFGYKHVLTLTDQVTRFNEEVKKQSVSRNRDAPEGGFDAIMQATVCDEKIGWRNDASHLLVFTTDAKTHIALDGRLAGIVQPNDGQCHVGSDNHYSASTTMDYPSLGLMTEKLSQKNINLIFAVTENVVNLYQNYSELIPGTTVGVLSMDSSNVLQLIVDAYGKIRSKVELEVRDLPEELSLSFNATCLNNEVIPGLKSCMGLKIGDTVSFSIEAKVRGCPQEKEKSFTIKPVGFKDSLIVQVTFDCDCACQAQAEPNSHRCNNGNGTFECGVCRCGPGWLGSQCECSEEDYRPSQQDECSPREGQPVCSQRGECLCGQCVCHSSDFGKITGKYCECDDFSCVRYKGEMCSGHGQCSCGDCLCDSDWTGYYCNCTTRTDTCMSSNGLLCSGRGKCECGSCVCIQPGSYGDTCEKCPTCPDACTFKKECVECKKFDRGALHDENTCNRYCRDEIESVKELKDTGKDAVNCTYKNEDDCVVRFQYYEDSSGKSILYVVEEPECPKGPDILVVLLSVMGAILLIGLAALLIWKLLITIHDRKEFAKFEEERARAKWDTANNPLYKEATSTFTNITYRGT
T1 sequence (P08514 32-887 limits assumed): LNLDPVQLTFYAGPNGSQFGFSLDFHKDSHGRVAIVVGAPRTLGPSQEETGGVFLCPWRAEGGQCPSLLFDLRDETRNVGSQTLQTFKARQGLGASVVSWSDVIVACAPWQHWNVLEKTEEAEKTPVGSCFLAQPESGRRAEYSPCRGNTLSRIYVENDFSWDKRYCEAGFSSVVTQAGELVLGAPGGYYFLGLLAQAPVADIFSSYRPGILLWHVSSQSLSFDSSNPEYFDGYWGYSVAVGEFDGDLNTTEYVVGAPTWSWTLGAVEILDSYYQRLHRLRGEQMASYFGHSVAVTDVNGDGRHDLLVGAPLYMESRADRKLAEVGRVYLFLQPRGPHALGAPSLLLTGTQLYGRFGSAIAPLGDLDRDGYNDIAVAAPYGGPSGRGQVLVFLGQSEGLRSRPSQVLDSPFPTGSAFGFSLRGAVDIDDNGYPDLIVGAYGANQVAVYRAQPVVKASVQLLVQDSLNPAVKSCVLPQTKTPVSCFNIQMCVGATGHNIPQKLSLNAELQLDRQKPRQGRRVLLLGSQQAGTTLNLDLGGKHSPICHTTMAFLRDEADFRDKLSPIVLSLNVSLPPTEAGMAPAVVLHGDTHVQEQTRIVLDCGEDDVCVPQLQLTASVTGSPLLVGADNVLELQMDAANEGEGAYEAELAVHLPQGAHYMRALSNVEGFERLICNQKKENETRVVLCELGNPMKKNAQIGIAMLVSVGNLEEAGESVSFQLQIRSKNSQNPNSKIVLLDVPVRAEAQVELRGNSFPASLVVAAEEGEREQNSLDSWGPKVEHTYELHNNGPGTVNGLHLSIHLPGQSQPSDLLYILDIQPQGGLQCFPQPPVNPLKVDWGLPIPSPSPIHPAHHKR
T1 sequence (P08514 891-1039 limits assumed): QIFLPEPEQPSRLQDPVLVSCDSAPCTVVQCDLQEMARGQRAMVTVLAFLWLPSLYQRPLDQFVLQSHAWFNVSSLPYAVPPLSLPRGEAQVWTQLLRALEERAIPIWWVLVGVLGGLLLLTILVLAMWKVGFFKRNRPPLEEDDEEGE

For the molecule `O=C(O)C[C@H](NC(=O)C1CCCn2c(/C=C/C3CCNCC3)nnc21)c1cccnc1` (stereo not given in full), the pIC50 in data set [1] was 9.68. Besides, the Oral duration in data set [2] is >6 h. Further, in data set [3], the bioavailability is 31%. The molecule `O=C(O)C[C@H](NC(=O)C1CCCn2c(CCC3CCNCC3)nnc21)c1cccnc1` (stereo not given in full) had a pIC50 in data set [1] of 9.28. In addition, the Oral duration in data set [2] was 3 h. `O=C(N[C@@H](CNC(=O)[C@@H]1CCCN(C(=O)CCC2CCNCC2)C1)C(=O)O)OCc1ccccc1`: in data set [1], the pIC50 is 9.77. This molecule also had an Oral duration in data set [2] of 3 h. Take `O=C(O)C[C@H](NC(=O)c1cccn2c(CCC3CCNCC3)nnc12)c1cccnc1`: in data set [1], the pIC50 was 8.38.

In the case of `O=C(O)C[C@H](NC(=O)[C@@H]1CCCN(C(=O)CCC2CCNCC2)C1)c1cccnc1` [ELAROFIBAN], the pIC50 in data set [1] was 9.44. In addition, in data set [2], the Oral duration was determined as 5 h. This molecule gave a half-life in data set [4] of 5 h. Besides, the bioavailability in data set [3] (read-out: Bioavailabiility) is 16%. For the molecule `CC1(C(=O)NC[C@H](NC(=O)OCc2ccccc2)C(=O)O)CCCn2c(CCC3CCNCC3)nnc21` (stereo not given in full), in data set [2], the Oral duration was <0.5 h. `O=C(O)C[C@H](NC(=O)C1CCCn2c(/C=C/C3CCNCC3)nnc21)c1cnc2ccccc2c1` (stereo not given in full) returned an Oral duration in data set [2] of 4.5 h. The molecule `O=C(N[C@@H](CNC(=O)C1CCCn2c(/C=C/C3CCNCC3)nnc21)C(=O)O)OCc1ccccc1` (stereo not given in full) gave a pIC50 in data set [1] of 9.49. Also, the Oral duration in data set [2] was >6 h. This molecule also showed a bioavailability in data set [3] of 23%. Regarding `O=C(O)C[C@H](NC(=O)c1cccn2c(/C=C/C3CCNCC3)nnc12)c1cccnc1`, the IC50 entry in data set [5] was “Not Active”.

Take `O=C(N[C@@H](CNC(=O)C1CCCn2c(CCC3CCNCC3)nnc21)C(=O)O)OCc1ccccc1` (stereo not given in full): the Oral duration in data set [2] was found to be 4 h. In the case of `O=C(NC[C@H](NS(=O)(=O)Cc1ccccc1)C(=O)O)C1CCCn2c(/C=C/C3CCNCC3)nnc21` (stereo not given in full), in data set [2], the Oral duration was <0.5 h.

For the origin of these results see ChEMBL document CHEMBL1133979, “1,2,4-triazolo[3,4-a]pyridine as a novel, constrained template for fibrinogen receptor (GPIIb/IIIa) antagonists” (Bioorg Med Chem Lett, 2001).
